What was measured:
E. meliloti = test: Heat shock screen of material library at 50° C. for 24 hours (Viability Score); type: cell-based, Ensifer meliloti
Method: FIG. 18. E. meliloti stabilizers against 24 hours at 50° C. Extended data of FIG. 8. E. meliloti was mixed with the material library at the 1×concentration, freeze dried, and exposed to 50° C. for 24 hours. The viability score was characterized as in FIG. 8, and the data is ordered by the viability score of the comparison values when stored at 23° C.
E. meliloti is currently used as a seed inoculant prior to planting, however, there remains a need for improved stability of the microbial product present during formulation, storage, and seed inoculation, particularly when it comes to tolerance to elevated temperatures above 40° C.^28,29. […] Functional symbiosis was measured as percent of seedlings that successfully formed nodules. […]
(§1) The viability of the stored microbial-material combinations was determined by rehydrating in water, making 10-fold serial dilutions in PBS, plating onto the appropriate solid medium and quantifying the resulting colonies. […]
(§2) To assign a Viability Score, using FIJI (imageJ), the 16-bit tiff plate images were programmatically separated into individual spot images, each spot was segmented, and several image attributes were measured (raw particle count, mean background value, mean segmented region value, segmented region area). […]

Medicago truncatula A17 = test: Plant nodulation assay with stabilized E. meliloti; type: in vivo; details: E. meliloti formulated in the material, 50° C. shock for 24 hours, rehydrated, applied to seedlings
Method: E. meliloti cultures were prepared as described above (see “High throughput pipeline for microbial material stabilizers”) and freeze-dried with the specified stabilizers following the 1-well plate method described in “Validation of two-material combinations”. The bagged, stabilized powders were exposed to 50° C. for 24 hours in a static incubator and then kept in the dark at 4° C. until used.
Nodulation of Medicago truncatula A17 was assayed according to a protocol from Sadowsky et al. modified to growth in pouches^20-22. Specifically, M. truncatula A17 seeds (Noble Research Institute) were scarified by submerging in concentrated sulfuric acid for 8-9 minutes, washed 8× with sterile water, sterilized by submerging in 8.25% sodium hypochlorite for 90 seconds, washed 8× with sterile water, allowed to imbibe in sterile water for ˜1 hour, placed on 1% agar plates, sealed with parafilm and foil, vernalized at 4° C. in the dark for 5 days and germinated at 23° C. in the dark for 20 hours. […]
The pouches were left undisturbed for 6 days, watered with 5 mL of 1/2×BNM as necessary and then inspected for nodules every other day. On day 12, the number of nodulated seedlings in each pouch was counted. The percent nodulated seedlings was calculated by dividing the number of nodulated seedlings by the total number of seedlings in the pouch.

[1] = test system: Escherichia coli Nissle 1917, Ensifer meliloti, Saccharomyces boulardii, Lactobacillus plantarum; test: High throughput pipeline for microbial material stabilizers (Viability Score after freeze-drying); type: cell-based; details: for viability score: after freeze-drying and 24 hours at room temperature, across the 4 microorganisms, score 0 to 1
Method: It was hypothesized that a synthetic extremophile that could survive in the dry state could then be enhanced to survive additional environmental insults using material formulation techniques applied to the dry powder (e.g., coating)^9. Therefore, a library was screened, composed primarily of materials generally recognized as safe (GRAS) by the Food and Drug Administration (FDA) for their ability to protect microbes through freeze-drying and survival at room temperature for 24 hours (Table 2). This materials library was applied to 4 microorganisms (Escherichia coli Nissle 1917, Ensifer meliloti, Saccharomyces boulardii, Lactobacillus plantarum) that span a wide range of phylogenetic backgrounds, are technologically important and genetically tractable. Each microorganism was mixed with each of the 260 materials at two different concentrations to give 2,080 microbial-material formulations.
Microbial strains were precultured overnight in 5 mL liquid medium at the appropriate conditions (see above). The overnight culture was diluted 1:1000 fold into three replicates of 125 mL of fresh liquid medium in a flask and cultured for 24 hours. The optical density (OD600) of each replicate culture was recorded (typically 2-2.5 for E. coli Nissle 1917, E. meliloti, L. plantarum and 5-6 for S. boulardii) and the cells were pelleted at 3220 rcf for 15 minutes. The cell pellets were then resuspended in PBS (E. meliloti, L. plantarum, S. boulardii) or spent medium (E. coli Nissle 1917) to a final OD600 of 2.25 and used immediately.
The material library was prepared by mixing each material with ultrapure water to the specified concentration (1×, 5×) in Table 2. The material solutions were arrayed in sealed deep well plates and kept at −20° C. until needed. On the day of use, the material plates were thawed at room temperature, vortexed well and centrifuged briefly.
To freeze-dry, each replicate microbial cell suspension (25 uL) was mixed with the arrayed materials (75 uL) in batch into flat-bottom 96-well plates using a liquid handling robot (Tecan, EVO 150). […]
as §1, §2

E. coli Nissle 1917 = test: Validation of two-material combinations at 37° C.; type: cell-based, Escherichia coli; details: in combination with melibiose, larger format
Method: E. coli Nissle 1917 was prepared as described above (see “Vial-based viability validation”) with a few modifications: the flask culture was 2 L and incubated for 17-18 hours and the final cell suspension in PBS was set to an OD600 of 10-12.
To freeze-dry, the cell suspension (12.5 mL) was mixed with the target material combination (37.5 mL), poured into rectangular 1-well plates, and placed into a tray freeze dryer with shelfs pre-cooled to −40° C. and on custom 0.25-inch aluminum pedestals to ensure heat transfer to the plates. Samples were dried as described above (see “High throughput pipeline”). […]
The viability of the stored samples was assessed by hydrating the samples with 1 mL PBS, making 10-fold serial dilutions, spotting ˜1.5 uL of each dilution in triplicate onto LB agar in 1-well rectangular plates using a pin replicator (V&P Scientific, VP 407A), incubating at 37° C., and counting colonies on the strongest dilution that gives >1 colony per spot. Total CFU counts per sample were calculated by first dividing spot counts by the spotted volume and multiplying by the dilution factor and total rehydration volume, and then averaging across the three spotting replicates. Total CFU counts per mass were calculated by dividing the CFU counts per sample by the mass of the stored sample. Three independently stored replicate samples were analyzed as described. […]

Structure (SMILES): OC[C@H]1O[C@@](CO)(O[C@H]2O[C@H](CO)[C@@H](O)[C@H](O)[C@H]2O)[C@@H](O)[C@@H]1O [sucrose]
- material class in heat shock screen (synthetic thermotolerance) (E. meliloti): optimal
- nodulation of M. truncatula seedlings by stabilized E. meliloti (Medicago truncatula A17): successfully nodulate

Structure (SMILES): OC[C@H]1O[C@H](O[C@H]2[C@H](O)[C@@H](O)C(O)O[C@@H]2CO)[C@H](O)[C@@H](O)[C@@H]1O (mixture of isomers) [maltose]
- material class in heat shock screen (synthetic thermotolerance) (E. meliloti): optimal
- nodulation of M. truncatula seedlings by stabilized E. meliloti (Medicago truncatula A17): successfully nodulate

Structure (SMILES): O=S([O-])S(=O)(=O)[O-].[Na+].[Na+] [sodium metabisulfite]
- viability score [1]: 0

Structure (SMILES): Cn1c(=O)c2c(ncn2C)n(C)c1=O [caffeine]
- stability of two-material formulation at extended storage times (E. coli Nissle 1917): robust

Structure (SMILES): OC[C@H]1O[C@H](O[C@H]2O[C@H](CO)[C@@H](O)[C@H](O)[C@H]2O)[C@H](O)[C@@H](O)[C@@H]1O [trehalose]
- viability score [1]: measurable viability

Structure (SMILES): OC[C@H]1O[C@H](OCC2O[C@@H](O)[C@H](O)[C@@H](O)[C@@H]2O)[C@H](O)[C@@H](O)[C@H]1O (stereo partly drawn) [melibiose]
- performance in stabilizer screen ([1]; E. coli Nissle 1917): best performing material

Structure (SMILES): [Na+].[OH-] [sodium hydroxide]
- viability score [1]: 0
